Patent US20040024024A1, “Aromatic sulfone hydroxamates and their use as protease inhibitors” (priority 2001, published 2004)
Where a name gives a salt, the structure may show the parent alone.

Assays:
Test in all cases: In vitro MMP inhibition, IC50 determination (fluorogenic substrate I)
Type in all cases: biochemical
Human recombinant MMP-1 = target: T1, Human recombinant MMP-1 (Homo sapiens, UniProt P03956)
T1 construct: made in house; host or cells: MMP-1-transfected HT-1080 cells (spent media)
T1 sequence (P03956 100-469): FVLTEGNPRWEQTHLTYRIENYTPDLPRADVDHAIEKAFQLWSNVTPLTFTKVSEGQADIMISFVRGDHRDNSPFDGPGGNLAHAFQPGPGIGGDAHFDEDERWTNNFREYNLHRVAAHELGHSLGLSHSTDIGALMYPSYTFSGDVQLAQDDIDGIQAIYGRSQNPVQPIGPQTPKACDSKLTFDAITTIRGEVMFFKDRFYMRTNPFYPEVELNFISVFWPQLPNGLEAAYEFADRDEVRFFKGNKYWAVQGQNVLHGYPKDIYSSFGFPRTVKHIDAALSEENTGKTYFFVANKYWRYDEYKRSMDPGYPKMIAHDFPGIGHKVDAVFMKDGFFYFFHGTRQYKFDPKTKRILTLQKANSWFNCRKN
Procedure: (§1) Several hydroxamates and salts thereof were analyzed in in vitro assays to determine their ability to inhibit the MMP cleavage of peptide substrates. Inhibition (Ki) and IC50 constants were calculated from the assayed hydroxamate-MMP interactions.
(§2) Human recombinant MMP-1, MMP-2, MMP-9, MMP-13, and MMP-14 were used in this assay. All enzymes were prepared in Assignee's laboratories following usual laboratory procedures. Protocols for the preparation and use of these enzymes are available in the scientific literature. See, e.g., Enzyme Nomenclature (Academic Press, San Diego, Calif., 1992) (and the citations therein). See also, Frije et al., J. Biol. Chem., 26(24), 16766-73 (1994).
The MMP-1 proenzyme was purified from the spent media of MMP-1-transfected HT-1080 cells provided by Dr. Harold Welgus of Washington University (St. Louis, Mo.). The protein was purified on a zinc chelating column.
(§3) All MMPs were activated using 4-aminophenylmercuric acetate (“APMA”, Sigma Chemical, St. Louis, Mo.) or trypsin. MMP-9 also was activated using human recombinant MMP-3 (purified in Assignee's laboratory following standard cloning and purification techniques).
(§4) Two fluorogenic, methoxycoumarin-containing polypeptide substrates were used in the MMP inhibition assays:
(§5) MCA-ProLeuGlyLeuDpaAlaArgNH2 (I)
(§6) Here, “Dpa” is 3-(2,4-dinitrophenyl)-L-2,3-diaminopropionyl group, and “MCA” is 7-methoxycoumarin-4-yl acetyl. Substrate (I) was purchased from Baychem (Redwood City, Calif.), and substrate II was prepared Assignee's laboratory. Substrate I was used in the IC50 determination assays, while substrate II was used in the Ki determination assays. In the absence of MMP inhibitory activity, either substrate is cleaved at the Gly-Leu peptide bond. This cleavage separates the highly fluorogenic peptide from the 2,4-dinitrophenyl quencher, thus resulting in increase of fluorescent intensity.
(§7) The stock solutions of the assayed hydroxamates (or salts thereof) were prepared in 1% dimethyl sulfoxide (DMSO). These stock solutions were diluted in Buffer A (100 mM Tris-HCl, 100 mM NaCl, 10 mM CaCl2, 0.05% polyoxyethylene 23 lauryl ether, pH 7.5) to obtain solutions with different hydroxamate concentrations, i.e., assay solutions with different concentrations of the assayed MMP inhibitory compound. The experiment controls contained the same amount of Buffer A/DMSO as the assayed sample, but contained no hydroxamate (or salt thereof).
(§8) The assays from which the IC50 determinations were made were performed as follows. The MMPs were activated with either trypsin or APMA (4-aminophenylmercuric acetate, Sigma Chemical, St. Louis, Mo.). The assayed hydroxamate samples were, incubated in Microfluorrm White Plates (Dynatech, Chantilly, VA) and analyzed on a Perkin Elmer L550 plate reader (Norwalk, Conn.). The excitation wavelength was 328 nm, and the emission wavelength—415 nm. All samples (assayed hydroxamates and controls) were incubated in separate plates at room temperature in the presence of 4 μM of MMP substrate (I). As stated in the previous paragraph, samples containing varying concentrations of the same assayed hydroxamate were prepared. Inhibition was measured as a reduction in fluorescent intensity as a function of MMP inhibitor concentration.

Human recombinant MMP-2 = target: T2, Human recombinant MMP-2 (Homo sapiens, UniProt P08253)
T2 construct: made in house; host or cells: MMP-2-transfected p2AHT2 cells
T2 sequence (P08253 110-660): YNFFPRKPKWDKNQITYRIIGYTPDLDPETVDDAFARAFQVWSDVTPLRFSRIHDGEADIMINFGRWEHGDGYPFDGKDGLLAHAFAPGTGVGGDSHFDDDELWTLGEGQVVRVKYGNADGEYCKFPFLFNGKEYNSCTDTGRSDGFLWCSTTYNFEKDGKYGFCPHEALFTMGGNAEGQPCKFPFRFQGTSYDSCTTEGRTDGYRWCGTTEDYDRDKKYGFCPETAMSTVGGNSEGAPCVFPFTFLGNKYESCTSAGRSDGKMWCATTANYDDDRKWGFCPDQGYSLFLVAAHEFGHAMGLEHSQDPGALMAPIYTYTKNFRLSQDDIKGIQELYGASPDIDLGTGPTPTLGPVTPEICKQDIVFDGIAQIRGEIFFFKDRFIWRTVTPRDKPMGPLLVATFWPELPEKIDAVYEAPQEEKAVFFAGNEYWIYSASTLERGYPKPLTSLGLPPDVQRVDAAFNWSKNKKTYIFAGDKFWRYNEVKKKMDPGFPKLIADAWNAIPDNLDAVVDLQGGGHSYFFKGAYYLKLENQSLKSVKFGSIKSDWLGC
In short: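 APMA- or trypsin-activated recombinant MMP-2 was incubated at room temperature with serial inhibitor dilutions in Tris buffer pH 7.5 (100 mM NaCl, 10 mM CaCl2, 0.05% Brij), with DMSO from 1% stocks, and 4 μM substrate I. Cleavage was read by fluorescence at 328/415 nm; IC50 was taken from the loss of fluorescence versus inhibitor concentration.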

Human recombinant MMP-9 = target: T3, Human recombinant MMP-9 (Homo sapiens, UniProt P14780)
T3 construct: made in house; host or cells: MMP-9-transfected HT1080 cells (spent media)
Procedure: as §1, §2
The MMP-9 proenzyme was purified by gelatin Sepharose chromatography from spent media of MMP-9-transfected HT1080 cells provided by Dr. Howard Welgus of Washington University (St. Louis, Mo.).
as §3, §4, §5, §6, §7, §8

Human recombinant MMP-13 = target: T4, Human recombinant MMP-13 (Homo sapiens, UniProt P45452)
T4 construct: made in house; host or cells: baculovirus / insect cells
In short: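 Fluorescence at 415 nm (excitation 328 nm) reports Gly-Leu cleavage of 4 μM quenched methoxycoumarin peptide substrate I. Human recombinant MMP-13, activated by trypsin or APMA, was incubated at room temperature with varied inhibitor concentrations in pH 7.5 Tris/NaCl/CaCl2 buffer; IC50 derived from reduced fluorescence.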

Human recombinant MMP-14 = target: T5, Human recombinant MMP-14 (Homo sapiens, UniProt P50281)
T5 construct: The catalytic domain enzyme was expressed in E. coli inclusion bodies, solubilized in urea; made in house
Procedure: as §1, §2
The MMP-14 full length cDNA was provided by Dr. Gregory Goldberg of Washington University (St. Louis, Mo.). The catalytic domain enzyme was expressed in E. coli inclusion bodies, solubilized in urea, purified on a preparative […] reverse phase HPLC column, and then refolded in the presence of zinc acetate and purified for use.
as §3, §4, §5, §6, §7, §8

[1] = substrate (I) 4 μM, room temperature, values not in parenthesis
[2] = value outside parentheses (Ki in parenthesis)

T3 sequence (P14780 107-707 limits assumed): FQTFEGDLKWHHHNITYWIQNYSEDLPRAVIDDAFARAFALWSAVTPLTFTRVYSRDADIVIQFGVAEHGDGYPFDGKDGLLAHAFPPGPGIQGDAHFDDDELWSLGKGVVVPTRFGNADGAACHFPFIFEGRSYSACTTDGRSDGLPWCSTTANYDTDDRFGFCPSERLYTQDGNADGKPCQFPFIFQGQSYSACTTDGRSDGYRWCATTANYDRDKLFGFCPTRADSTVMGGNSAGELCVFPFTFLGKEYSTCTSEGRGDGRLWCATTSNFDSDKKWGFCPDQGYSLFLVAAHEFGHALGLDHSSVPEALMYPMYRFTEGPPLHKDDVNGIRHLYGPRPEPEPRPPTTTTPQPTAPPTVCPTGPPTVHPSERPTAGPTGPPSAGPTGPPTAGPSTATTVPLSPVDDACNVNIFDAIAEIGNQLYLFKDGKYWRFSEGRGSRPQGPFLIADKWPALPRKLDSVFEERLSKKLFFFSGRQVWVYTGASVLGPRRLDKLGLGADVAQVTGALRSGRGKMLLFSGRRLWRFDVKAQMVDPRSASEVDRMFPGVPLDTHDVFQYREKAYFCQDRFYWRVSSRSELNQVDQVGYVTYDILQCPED

Structure (SMILES)	IC50 (Human recombinant MMP-1; [1]) [µM]	IC50 (Human recombinant MMP-2; [1]) [nM]	IC50 (Human recombinant MMP-9; [1]) [µM]	IC50 (Human recombinant MMP-13; [1]) [nM]	IC50 (Human recombinant MMP-14; [1]) [µM]	other results
COc1ccc(C(=O)NCCCOc2ccc(S(=O)(=O)C3(C(=O)NO)CCN(C4CC4)CC3)cc2)cc1 [Example 18, 1-cyclopropyl-N-hydroxy-4-[[4-[3[(4-methoxybenzoyl)amino]propoxy]phenyl]sulfonyl]-4-piperidinecarboxamide, Monohydrochloride]	> 10	537	6	1.8	> 10	
CN(CCCOc1ccc(S(=O)(=O)C2(C(=O)NO)CCOCC2)cc1)C(=O)c1ccc(N(C)C)cc1 [Example 19, 4-[[4-[3-[[4-(dimethylamino)benzoyl]methylamino]propoxy]phenyl]sulfonyl]tetrahydro-N-hydroxy-2H-pyran-4-carboxamide]	> 10	9000	5.19	15	> 10	
CN(C)c1ccc(NC(=O)CCCCOc2ccc(S(=O)(=O)C3(C(=O)NO)CCOCC3)cc2)cc1 [Example 20, 4-[[4-[[5-[[4-(dimethylamino)-phenyl]amino]-5-oxopentyl]oxy]phenyl]sulfonyl]tetrahydro-N-hydroxy-2H-pyran-4-carboxamide, Monohydrochloride]	> 10	1.8	0.498	1.8	> 10	
O=C1c2ccccc2C(=O)N1CCCOc1ccc(S(=O)(=O)C2(C(=O)NO)CCOCC2)cc1 [Example 21, 4-[[4-[3-(1,3-dihydro-1,3-dioxo2H-isoindol-2-yl)propoxy]phenyl]sulfonyl]tetrahydro-N-hydroxy-2H-pyran-4-carboxamide]	> 10	450	> 10	3.5	> 10	
O=C1c2ccccc2CN1CCCOc1ccc(S(=O)(=O)C2(C(=O)NO)CCOCC2)cc1 [Example 22, 4-[[4-[3-(1,3-dihydro-1-oxo-2H-isoindol-2-yl)propoxy]phenyl]sulfonyl]tetrahydro-N-hydroxy-2H-pyran-4-carboxamide]	> 10	1000	> 10	4.9	> 10	
COc1ccc(/C(CCCCOc2ccc(S(=O)(=O)C3(C(=O)NO)CCOCC3)cc2)=N/O)c(OC)c1 [Example 25]	> 10	247	8.5	1.8	> 10	
COc1ccc(C(=O)C(C)CCCOc2ccc(S(=O)(=O)C3(C(=O)NO)CCOCC3)cc2)cc1 (stereo not drawn) [Example 26, tetrahydro-N-hydroxy-4-[[4-[[5-(4-methyloxyphenyl)-4-methyl-5-oxopentyl]oxy]phenyl]sulfonyl]-2H-pyran-4-carboxamide]	> 10	52	4.43	3.4	> 10	
COc1ccc(/C(C#N)=C/CCCOc2ccc(S(=O)(=O)C3(C(=O)NO)CCOCC3)cc2)cc1 [Example 27, 4-[[4-[[(4Z)-5-cyano-5-(4-methoxyphenyl)-4-pentenyl]oxy]phenyl]sulfonyl]tetrahydro-N-hydroxy-2H-pyran-4-carboxamide]	> 10	83.9	9.37	0.2	> 10	
COc1ccc(/C(C)=C/CCCOc2ccc(S(=O)(=O)C3(C(=O)NO)CCOCC3)cc2)cc1 [Example 28, tetrahydro-N-hydroxy-4-[[4[[(4E)-5-(4-methoxyphenyl)-4-hexenyl]oxy]phenyl]sulfonyl]-2H-pyran-4-carboxamide]	> 10	76.4	3.71	7	> 10	
O=C1CN(c2ccccc2)C(=O)N1CCCOc1ccc(S(=O)(=O)C2(C(=O)NO)CCOCC2)cc1 [Example 174]						IC50 (Human recombinant MMP-1; value outside parenthesis): > 10 µM; IC50 (Human recombinant MMP-9; value outside parenthesis): 4.02 µM; IC50 (Human recombinant MMP-13; value outside parenthesis): 5.2 nM; IC50 (Human recombinant MMP-14; value outside parenthesis): > 10 µM
O=C1CN(c2ccccc2)C(=O)N1CCCOc1ccc(S(=O)(=O)C2(C(=O)NO)CCOCC2)cc1 [Example 263]						IC50 (Human recombinant MMP-9; value outside parenthesis): 3.27 µM; IC50 (Human recombinant MMP-13; value outside parenthesis): 3.8 nM
CN(C)c1ccc(C(=O)CCCCOc2ccc(S(=O)(=O)C3(C(=O)NO)CCN(C4CC4)CC3)cc2)cc1 [Example 267]						IC50 (Human recombinant MMP-1; value outside parenthesis): > 10 µM; IC50 (Human recombinant MMP-2; value outside parenthesis): 18.5 nM; IC50 (Human recombinant MMP-9; value outside parenthesis): 0.107 µM; IC50 (Human recombinant MMP-14; value outside parenthesis): > 10 µM
COc1ccc(SCCCCOc2ccc(S(=O)(=O)C3(C(=O)NO)CCOCC3)cc2)cc1 [Example 429]						IC50 (Human recombinant MMP-2; [2]): 6.5 nM; IC50 (Human recombinant MMP-9; [2]): > 10 µM; IC50 (Human recombinant MMP-13; [2]): 0.5 nM; IC50 (Human recombinant MMP-14; [2]): > 10 µM
O=C(NO)C1(S(=O)(=O)c2ccc(OCCOCc3cccnc3)cc2)CCOCC1 [Example 517]						IC50 (Human recombinant MMP-1; value outside parentheses): > 10 µM; IC50 (Human recombinant MMP-2; value outside parentheses): 34.7 nM; IC50 (Human recombinant MMP-9; value outside parentheses): 0.138 µM; IC50 (Human recombinant MMP-14; value outside parentheses): > 10 µM
O=C(NO)C1(S(=O)(=O)c2ccc(OCCOCc3cccnc3)cc2)CCOCC1 [Example 518]						IC50 (Human recombinant MMP-1; value outside parentheses): > 10 µM; IC50 (Human recombinant MMP-2; value outside parentheses): 26.4 nM; IC50 (Human recombinant MMP-9; value outside parentheses): 0.115 µM; IC50 (Human recombinant MMP-14; value outside parentheses): 0.967 µM
O=C(Cc1cccs1)NCCOc1ccc(S(=O)(=O)C2(C(=O)NO)CCOCC2)cc1 [Example 617]						IC50 (Human recombinant MMP-2; value outside parentheses): 0.8 nM; IC50 (Human recombinant MMP-9; value outside parentheses): 0.413 µM; IC50 (Human recombinant MMP-13; value outside parentheses): 0.6 nM; IC50 (Human recombinant MMP-14; value outside parentheses): 4.13 µM
CC(=O)c1ccc(OCCOc2ccc(S(=O)(=O)C3(C(=O)NO)CCOCC3)cc2)cc1 [Example 659]						IC50 (Human recombinant MMP-1; value outside parentheses): > 10 µM; IC50 (Human recombinant MMP-2; value outside parentheses): 3.91 nM; IC50 (Human recombinant MMP-9; value outside parentheses): 0.0471 µM; IC50 (Human recombinant MMP-13; value outside parentheses): 0.41 nM
